“Also recorded” adds a separate entry of the source. Where two headings read alike, the source gives them in different places.
Tests used:
[1] = test system: diet-induced obesity (DIO) rat model; test: Changes in weights in diet-induced obesity (DIO) rat model, 4-week administration; assay type: in vivo, Sprague Dawley (SD) rats; conditions: 5 mg/kg oral, 4 weeks
Description: To simultaneously evaluate both the weight-loss and hypoglycemic effects of the cyclohexene derivative according to the present invention, experiments were carried out, as follows.
Specifically, male Sprague Dawley (SD) rats (approximately 4 weeks old) in a diet-induced obesity model were fed with a high-fat diet (Lab. Diet Co.) for approximately 10 weeks to induce high-fat diet-induced obesity (DIO). The rats undergoing the high-fat diet were randomly selected, and divided into groups (n=8) for respective administrations. The compounds of Comparative Examples 3 and 4 and Examples 48 and 119 were administered to the divided DIO rats each group for 4 weeks.
The weights of the DIO rats were measured twice a week during a period of administration of 4 weeks to record a change in the weights. At the end of the 4-week period of administration, a hypoglycemic effect was evaluated using an oral glucose tolerance test (OGTT), as follows.

[2] = target: T1, G protein-coupled receptor 119 (GPR-119) (Mesocricetus auratus, UniProt A0A1U8CD06); test: cAMP activity in HIT-T15 cells (cAMP dynamic kit, FRET); assay type: cell-based, hamster
T1 construct: hamster-derived β-cells containing G protein-coupled receptor 119 (GPR-119), HIT-T15 cells; host or cells: HIT-T15 (hamster pancreatic β-cells)
T1 sequence (A0A1U8CD06 1-334): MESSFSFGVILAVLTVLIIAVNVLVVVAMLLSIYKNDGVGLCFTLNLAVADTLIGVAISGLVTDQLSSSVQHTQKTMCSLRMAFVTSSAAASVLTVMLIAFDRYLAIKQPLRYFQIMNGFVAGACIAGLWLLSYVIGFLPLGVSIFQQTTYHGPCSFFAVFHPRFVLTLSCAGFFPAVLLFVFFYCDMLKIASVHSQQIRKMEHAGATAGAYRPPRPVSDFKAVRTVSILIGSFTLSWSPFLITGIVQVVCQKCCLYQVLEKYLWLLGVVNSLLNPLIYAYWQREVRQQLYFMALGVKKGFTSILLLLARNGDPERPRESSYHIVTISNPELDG
In short: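 Hamster HIT-T15 cells (60,000/well) were treated next day with compound at six concentrations, 0.0032–10 μM, for 1 h at 37° C. Cells were then lysed and cAMP measured by competitive HTRF immunoassay (D2-cAMP, cryptate anti-cAMP). Activity was derived as the change in FRET signal relative to DMSO.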

[3] = 1 hour at 37° C., six concentrations 0.0032 to 10 μM, read-out: EC50

## CC(C)CC(N(C)C)C1(c2ccc(Cl)cc2)CCC1 (centres unmarked) [Comparative Example 4, Sibutramine]
[1]
  changes in weights of rats (weight-loss effect): weight loss was observed for 2 weeks; also recorded: the weight rather increased after 2 weeks

## CCc1cnc(N2CCC(COc3ccc(C4=CCC(C(=O)N5CCNCC5)CC4)cc3F)CC2)nc1 (centres unmarked) [Example 434, (4-(4-((1-(5-ethylpyrimidin-2-yl)piperidin-4-yl)methoxy)-3-fluorophenyl)cyclohex-3-enyl)(piperazin-1-yl)methanone]
[2]; [3]
  EC50: 180 nM

## O=C(C1CC=C(c2ccc(OCC3CCN(c4nc(C(F)(F)F)no4)CC3)c(F)c2)CC1)N1CCCC1 (centres unmarked) [Example 435, (4-(3-fluoro-4-((1-(3-(trifluoromethyl)-1,2,4-oxadiazol-5-yl)piperidin-4-yl)methoxy)phenyl)cyclohex-3-enyl)(pyrrolidin-1-yl)methanone]
[2]; [3]
  EC50: 13 nM
[2]; Table 2, read-out: EC50 value
  EC50: ≤ 50 nM

## CCC(F)(F)C(=O)N1CCC(COc2ccc(C3=CCC(C(=O)N4CCCC4)CC3)cc2F)CC1 (centres unmarked) [Example 436, 2,2-difluoro-1-(4-((2-fluoro-4-(4-(pyrrolidine-1-carbonyl)cyclohex-1-enyl)phenoxy)methyl)piperidin-1-yl)butan-1-one]
[2]; [3]
  EC50: 9.8 nM
[2]; Table 2, read-out: EC50 value
  EC50: ≤ 50 nM

## CCc1cnc(N2CCC(COc3ccc(C4=CCC(C(=O)N(CCO)CCO)CC4)c(F)c3)CC2)nc1 (centres unmarked) [Example 437, 4-(4-((1-(5-ethylpyrimidin-2-yl)piperidin-4-yl)methoxy)-2-fluorophenyl)-N,N-bis(2-hydroxyethyl)cyclohex-3-enecarboxamide]
[2]; [3]
  EC50: 27 nM
[2]; Table 2, read-out: EC50 value
  EC50: ≤ 50 nM

## CCc1cnc(N2CCC(COc3ccc(C4=CCC(C(=O)N(CC)CCO)CC4)c(F)c3)CC2)nc1 (centres unmarked) [Example 438, N-ethyl-4-(4-((1-(5-ethylpyrimidin-2-yl)piperidin-4-yl)methoxy)-2-fluorophenyl)-N-(2-hydroxyethyl)cyclohex-3-enecarboxamide]
[2]; [3]
  EC50: 23 nM
[2]; Table 2, read-out: EC50 value
  EC50: ≤ 50 nM

## CCC(F)(F)C(=O)N1CCC(COc2ccc(C3=CCC(C(=O)N4CCOCC4)CC3)cc2F)CC1 (centres unmarked) [Example 439, 2,2-difluoro-1-(4-((2-fluoro-4-(4-(morpholine-4-carbonyl)cyclohex-1-enyl)phenoxy)methyl)piperidin-1-yl)butan-1-one]
[2]; [3]
  EC50: 5.9 nM
[2]; Table 2, read-out: EC50 value
  EC50: ≤ 50 nM

## CC(OC(=O)N1CCC(COc2ccc(C3=CCC(C(=O)N4CCOCC4)CC3)cc2F)CC1)C(F)(F)F (centres unmarked) [Example 440, 1,1,1-trifluoropropan-2-yl 4-((2-fluoro-4-(4-(morpholine-4-carbonyl)cyclohex-1-enyl)phenoxy)methyl)piperidine-1-carboxylate]
[2]; [3]
  EC50: 8.7 nM
[2]; Table 2, read-out: EC50 value
  EC50: ≤ 50 nM

## CC(C)OC(=O)N1CCC(COc2ccc(C3=CCC(C(=O)N4CCOCC4)CC3)cc2F)CC1 (centres unmarked) [Example 444, isopropyl 4-((2-fluoro-4-(4-(morpholine-4-carbonyl)cyclohex-1-enyl)phenoxy)methyl)piperidine-1-carboxylate]
[2]; [3]
  EC50: 26 nM
[2]; Table 2, read-out: EC50 value
  EC50: ≤ 50 nM

## O=C(Oc1ccccc1)N1CCC(COc2ccc(C3=CCC(C(=O)N4CCOCC4)CC3)cc2F)CC1 (centres unmarked) [Example 445, phenyl 4-((2-fluoro-4-(4-(morpholine-4-carbonyl)cyclohex-1-enyl)phenoxy)methyl)piperidine-1-carboxylate]
[2]; [3]
  EC50: 11 nM
[2]; Table 2, read-out: EC50 value
  EC50: ≤ 50 nM

## O=C(OC(C(F)(F)F)C(F)(F)F)N1CCC(COc2ccc(C3=CCC(C(=O)N4CCOCC4)CC3)cc2F)CC1 (centres unmarked) [Example 446, 1,1,1,3,3,3-hexafluoropropan-2-yl 4-((2-fluoro-4-(4-(morpholine-4-carbonyl)cyclohex-1-enyl)phenoxy)methyl)piperidine-1-carboxylate]
[2]; [3]
  EC50: 20 nM
[2]; Table 2, read-out: EC50 value
  EC50: ≤ 50 nM

## O=C(OC(CF)CF)N1CCC(COc2ccc(C3=CCC(C(=O)N4CCOCC4)CC3)cc2F)CC1 (centres unmarked) [Example 447, 1,3-difluoropropan-2-yl 4-((2-fluoro-4-(4-(morpholine-4-carbonyl)cyclohex-1-enyl)phenoxy)methyl)piperidine-1-carboxylate]
[2]; [3]
  EC50: 62 nM

## CC(C)c1noc(N2CCC(COc3ccc(C4=CCC(C(=O)N5CCOCC5)CC4)c(F)c3)CC2)n1 (centres unmarked) [Example 448, (4-(2-fluoro-4-((1-(3-isopropyl-1,2,4-oxadiazol-5-yl)piperidin-4-yl)methoxy)phenyl)cyclohex-3-enyl)(morpholino)methanone]
[2]; [3]
  EC50: 25 nM
[2]; Table 2, read-out: EC50 value
  EC50: ≤ 50 nM

## CC(C)c1noc(N2CCC(COc3ccc(C4=CCC(C(=O)N5CCSCC5)CC4)c(F)c3)CC2)n1 (centres unmarked) [Example 449, (4-(2-fluoro-4-((1-(3-isopropyl-1,2,4-oxadiazol-5-yl)piperidin-4-yl)methoxy)phenyl)cyclohex-3-enyl)(thiomorpholino)methanone]
[2]; [3]
  EC50: 33 nM
[2]; Table 2, read-out: EC50 value
  EC50: ≤ 50 nM

## O=C(C1CC=C(c2ccc(OCC3CCN(C(=O)C4(C(F)(F)F)CCCC4)CC3)c(F)c2)CC1)N1CCOCC1 (centres unmarked) [Example 450, (4-(3-fluoro-4-((1-(1-(trifluoromethyl)cyclopentanecarbonyl)piperidin-4-yl)methoxy)phenyl)cyclohex-3-enyl)(morpholino)methanone]
[2]; [3]
  EC50: 27 nM
[2]; Table 2, read-out: EC50 value
  EC50: ≤ 50 nM

## CC(C)=CC(=O)N1CCC(COc2ccc(C3=CCC(C(=O)N4CCOCC4)CC3)cc2F)CC1 (centres unmarked) [Example 451, 1-(4-((2-fluoro-4-(4-(morpholine-4-carbonyl)cyclohex-1-enyl)phenoxy)methyl)piperidin-1-yl)-3-methylbut-2-en-1-one]
[2]; [3]
  EC50: 89 nM

## CCc1cnc(N2CCC(COc3ccc(C4=CCC(C(=O)N5CCC(C(F)(F)F)CC5)CC4)c(F)c3)CC2)nc1 (centres unmarked) [Example 452, (4-(4-((1-(5-ethylpyrimidin-2-yl)piperidin-4-yl)methoxy)-2-fluorophenyl)cyclohex-3-enyl)(4-(trifluoromethyl)piperidin-1-yl)methanone]
[2]; [3]
  EC50: 18 nM
[2]; Table 2, read-out: EC50 value
  EC50: ≤ 50 nM

## CCc1cnc(N2CCC(COc3ccc(C4=CCC(C(=O)N5CCC(F)(F)CC5)CC4)c(F)c3)CC2)nc1 (centres unmarked) [Example 453, (4,4-difluoropiperidin-1-yl)(4-(4-((1-(5-ethylpyrimidin-2-yl)piperidin-4-yl)methoxy)-2-fluorophenyl)cyclohex-3-enyl)methanone]
[2]; [3]
  EC50: 12 nM
[2]; Table 2, read-out: EC50 value
  EC50: ≤ 50 nM

## CCc1cnc(N2CCC(COc3ccc(C4=CCC(C(=O)N5CCC(F)(F)C5)CC4)c(F)c3)CC2)nc1 (centres unmarked) [Example 454, (3,3-difluoropyrrolidin-1-yl)(4-(4-((1-(5-ethylpyrimidin-2-yl)piperidin-4-yl)methoxy)-2-fluorophenyl)cyclohex-3-enyl)methanone]
[2]; [3]
  EC50: 15 nM
[2]; Table 2, read-out: EC50 value
  EC50: ≤ 50 nM

## CCc1cnc(N2CCC(COc3ccc(C4=CCC(C(=O)N5CC(F)(F)C(F)(F)C5)CC4)c(F)c3)CC2)nc1 (centres unmarked) [Example 455, (4-(4-((1-(5-ethylpyrimidin-2-yl)piperidin-4-yl)methoxy)-2-fluorophenyl)cyclohex-3-enyl)(3,3,4,4-tetrafluoropyrrolidin-1-yl)methanone]
[2]; [3]
  EC50: 18 nM
[2]; Table 2, read-out: EC50 value
  EC50: ≤ 50 nM

## CCc1cnc(N2CCC(COc3ccc(C4=CCC(C(=O)N5CCC(C(F)(F)F)CC5)CC4)cc3F)CC2)nc1 (centres unmarked) [Example 456, (4-(4-((1-(5-ethylpyrimidin-2-yl)piperidin-4-yl)methoxy)-3-fluorophenyl)cyclohex-3-enyl)(4-(trifluoromethyl)piperidin-1-yl)methanone]
[2]; [3]
  EC50: 18 nM
[2]; Table 2, read-out: EC50 value
  EC50: ≤ 50 nM

## CCc1cnc(N2CCC(COc3ccc(C4=CCC(C(=O)N5CCC(F)(F)CC5)CC4)cc3F)CC2)nc1 (centres unmarked) [Example 457, (4,4-difluoropiperidin-1-yl)(4-(4-((1-(5-ethylpyrimidin-2-yl)piperidin-4-yl)methoxy)-3-fluorophenyl)cyclohex-3-enyl)methanone]
[2]; [3]
  EC50: 9.8 nM
[2]; Table 2, read-out: EC50 value
  EC50: ≤ 50 nM

## CCc1cnc(N2CCC(COc3ccc(C4=CCC(C(=O)N5CCC(F)(F)C5)CC4)cc3F)CC2)nc1 (centres unmarked) [Example 459, (3,3-difluoropyrrolidin-1-yl)(4-(4-((1-(5-ethylpyrimidin-2-yl)piperidin-4-yl)methoxy)-3-fluorophenyl)cyclohex-3-enyl)methanone]
[2]; [3]
  EC50: 36 nM
[2]; Table 2, read-out: EC50 value
  EC50: ≤ 50 nM

## CCc1cnc(N2CCC(COc3ccc(C4=CCC(C(=O)N5CC(F)(F)C(F)(F)C5)CC4)cc3F)CC2)nc1 (centres unmarked) [Example 460, (4-(4-((1-(5-ethylpyrimidin-2-yl)piperidin-4-yl)methoxy)-3-fluorophenyl)cyclohex-3-enyl)(3,3,4,4-tetrafluoropyrrolidin-1-yl)methanone]
[2]; [3]
  EC50: 12 nM
[2]; Table 2, read-out: EC50 value
  EC50: ≤ 50 nM
